One series has as its target T1, GBA2 (Homo sapiens, UniProt Q9HCG7).
T1 sequence (Q9HCG7 1-927): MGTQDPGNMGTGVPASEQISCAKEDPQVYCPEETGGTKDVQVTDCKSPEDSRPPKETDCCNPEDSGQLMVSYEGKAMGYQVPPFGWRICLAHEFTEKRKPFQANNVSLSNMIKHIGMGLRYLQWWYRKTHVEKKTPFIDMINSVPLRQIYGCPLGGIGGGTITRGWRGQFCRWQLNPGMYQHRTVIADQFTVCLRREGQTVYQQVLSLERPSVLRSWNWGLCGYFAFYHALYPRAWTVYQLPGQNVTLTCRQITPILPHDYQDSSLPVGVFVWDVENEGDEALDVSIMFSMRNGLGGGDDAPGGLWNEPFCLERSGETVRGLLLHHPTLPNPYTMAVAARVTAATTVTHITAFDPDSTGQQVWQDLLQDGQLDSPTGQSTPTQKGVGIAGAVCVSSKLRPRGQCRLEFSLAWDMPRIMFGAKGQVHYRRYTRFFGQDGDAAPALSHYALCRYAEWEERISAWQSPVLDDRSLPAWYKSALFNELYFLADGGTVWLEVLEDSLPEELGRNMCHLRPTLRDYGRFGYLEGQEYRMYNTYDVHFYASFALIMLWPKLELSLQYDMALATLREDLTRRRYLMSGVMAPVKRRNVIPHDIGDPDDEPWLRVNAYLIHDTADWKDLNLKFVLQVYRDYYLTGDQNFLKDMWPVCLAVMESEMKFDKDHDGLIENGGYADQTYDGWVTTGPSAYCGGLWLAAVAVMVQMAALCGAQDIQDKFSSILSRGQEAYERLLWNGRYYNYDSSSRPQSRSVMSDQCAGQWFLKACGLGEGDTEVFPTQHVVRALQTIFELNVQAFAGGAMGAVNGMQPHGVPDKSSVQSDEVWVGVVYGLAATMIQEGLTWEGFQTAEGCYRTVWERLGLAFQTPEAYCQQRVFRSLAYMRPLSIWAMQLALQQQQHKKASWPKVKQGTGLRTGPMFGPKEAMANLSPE
In words: In vitro kinetic assay with GBA2. Type of series: biochemical. The settings on record: GBA enzymes at 50 nM.

In another series the target is T2, GBA3 (Homo sapiens, UniProt Q9H227).
T2 construct: purchased R&D Systems
T2 sequence (Q9H227 1-469): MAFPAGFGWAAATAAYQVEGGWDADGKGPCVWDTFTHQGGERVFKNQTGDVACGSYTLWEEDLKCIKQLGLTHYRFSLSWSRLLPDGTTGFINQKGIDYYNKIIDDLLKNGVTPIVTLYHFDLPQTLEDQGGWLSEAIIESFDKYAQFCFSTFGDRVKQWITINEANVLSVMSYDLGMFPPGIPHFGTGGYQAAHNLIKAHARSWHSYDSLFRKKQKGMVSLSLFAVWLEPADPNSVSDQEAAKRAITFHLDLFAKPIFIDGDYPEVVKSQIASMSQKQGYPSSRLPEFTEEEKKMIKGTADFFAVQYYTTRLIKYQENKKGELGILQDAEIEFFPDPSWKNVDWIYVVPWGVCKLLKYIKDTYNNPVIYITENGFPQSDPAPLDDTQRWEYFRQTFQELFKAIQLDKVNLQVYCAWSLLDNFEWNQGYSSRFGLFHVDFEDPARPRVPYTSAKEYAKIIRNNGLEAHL
In words: In vitro kinetic assay with GBA3. Type of series: biochemical. The settings on record: GBA enzymes at 50 nM. The procedure:
(§1) For some experiments, fluorescence kinetic assays were performed using a Varian Cary Eclipse Spectrophotometer set for 335/493 nm excitation/emission wavelengths. Slits were set at 10 nm and the detector was set on Medium voltage. Enzymatic reactions with human OGA were carried out in PBS at 37° C. and were started by addition of hOGA (WT, Full-length, expressed in E. coli. as previously described) in a total volume of 160 μL (Starna sub-micro Fluorometer cuvette). For measurements of rates using different concentrations of substrates, a hOGA concentration of 100 nM was used. For hOGA titration, 25 μM of Glyco-BABS were added to various concentration of hOGA. […] EDANS standard curve was established using endpoint fluorescence measurements of serial dilutions of EDANS in the relevant buffer using the same instrument parameters. Inner-Filter effect measurements were carried out in cuvette by measuring fluorescence of several concentrations of EDANS in presence of various concentrations of GlcNAc-BABS. Kinetics with Glc-BABS and GBA enzymes (GBA1 and GBA3 purchased from R&D Systems), kinetics with GALC (R&D systems) and Gal-BABS, pH stability, quenching efficiency, some inner-filter effect experiments and lysates experiments were carried out using a Molecular Devices SpectraMax i3× plate reader. […]

A short description of series [1]: pH stability of Glyco-BABS. As to conditions: 5 μM, up to 72 h, pH 2 to 10. Type of series: physicochemical.
A further series addresses T3, GBA1 (Homo sapiens, UniProt P04062).
T3 sequence (P04062 40-536): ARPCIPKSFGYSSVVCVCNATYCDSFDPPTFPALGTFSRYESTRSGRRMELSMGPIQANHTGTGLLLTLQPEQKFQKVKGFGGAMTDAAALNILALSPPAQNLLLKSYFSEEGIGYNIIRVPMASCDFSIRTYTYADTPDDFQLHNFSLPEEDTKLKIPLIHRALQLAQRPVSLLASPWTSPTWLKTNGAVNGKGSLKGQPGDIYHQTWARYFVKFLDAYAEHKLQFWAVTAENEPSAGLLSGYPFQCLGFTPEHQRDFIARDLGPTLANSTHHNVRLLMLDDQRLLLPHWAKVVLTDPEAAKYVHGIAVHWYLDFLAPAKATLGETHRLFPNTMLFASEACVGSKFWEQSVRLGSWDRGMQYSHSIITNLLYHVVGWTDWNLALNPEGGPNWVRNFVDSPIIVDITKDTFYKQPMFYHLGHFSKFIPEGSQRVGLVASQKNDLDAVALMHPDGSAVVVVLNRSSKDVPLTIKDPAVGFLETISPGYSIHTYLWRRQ
The series is described as follows: In vitro kinetic assay with GBA1. Type of series: biochemical. Further details: purchased R&D Systems. As to conditions: GBA enzymes at 50 nM. On the procedure:
as §1

Results on 1 compound are retold here after patent US11396522B2, “Bis-acetal-based substrates for imaging exo-glycosidase activity” (ALECTOS THERAPEUTICS INC., priority 2017, dated 2022).

Turning to `CN(C)c1ccc(/N=N/c2ccc(C(=O)NCc3cn(CCOCCO[C@H](O[C@@H]4O[C@H](CO)[C@@H](O)[C@H](O)[C@H]4O)[C@@](C)(O)C(=O)NCCNc4cccc5c(S(=O)(=O)O)cccc45)nn3)cc2)cc1` [Compound 6, 5-((2-((2R,3R)-3-(2-(2-(4-((4-((E)-(4-(dimethylamino)phenyl)diazenyl)benzamido)methyl)-1H-1,2,3-triazol-1-yl)ethoxy)ethoxy)-2-hydroxy-2-methyl-3-(((2S,3R,4S,5S,6R)-3,4,5-trihydroxy-6-(hydroxymethyl)tetrahydro-2H-pyran-2-yl)oxy)propanamido)ethyl)amino)naphthalene-1-sulfonic Acid], the “turnover by GBA2” value on GBA2 is reported as “not turned over”. Further, the “turnover by GBA3” value on GBA3 is on record as “not turned over”. The “pH stability (increase of fluorescence)” value in series [1] was “no significant increase of fluorescence”. For the same compound, the “turnover by GBA1” value at GBA1 is on record as “not turned over”.
